Read-outs that look alike come from different tables or passages of the source.
Columns and labels:
DPPH scavenging assay [1] = conditions: for DPPH Free Radical Scavenging Ability: mean ± S.E.M, n = 3
Description: The antioxidant potential of the free acids and their Cu(II) carboxylates was explored via the DPPH method using ascorbic acid as a reference. The DPPH, with a single unpaired electron, is capable of accepting a hydrogen or electron and gives a strong absorption at 517 nm. The absorption generally decreases when it accepts a hydrogen or electron from an antioxidant, forming a stable molecule. The results given in Table 5 indicate that the compounds under study show a moderate level of antioxidant potential. This activity may be attributed to the various structural and electronic factors like coordination geometry, redox properties, chelate ring size, degree of unsaturation, etc.. The transfer of proton or electron from an antioxidant to DPPH results in the formation of species that undergo other reactions like coupling, fragmentation, and addition, which affect the rate and stoichiometry of the reaction.
The compounds under study were subjected to DPPH scavenging ability test as per cited literature. A 0.004% solution of reagent DPPH was added to the different concentrations of tested compounds (i.e., 125, 250, 500 and 1000 μg/mL) and the reaction mixture was incubated subsequently for about thirty minutes in dark. Ascorbic acid was used as positive control. The UV-3000 O.R.I. Germany was used to record the change in absorption of the reaction mixture at 517 nm and the percentage scavenging ability of the compounds under study was determined using formula: % scavenging activity =Absorbance of control−Absorbance of compounds /Absorbance of control×100
The experiments were repeated thrice. The GraphPad Prism® (version 4.0, Sandiego, CA, USA) was used to calculate the IC50 values.

[2] = Hydrogen peroxide scavenging assay; conditions: for H2O2 free radical scavenging ability: mean ± S.E.M, n = 3
Description: In addition to DPPH the ligand acids and their complexes were also evaluated for their peroxide scavenging ability test. Hydrogen peroxide (H2O2) is a biologically important, non-radical reactive oxygen species (ROS) that can influence several cellular processes. It is a weak oxidizing agent and can inactivate a few enzymes directly, usually via oxidation of essential thiol (-SH) groups. It can cross cell membranes rapidly, and inside the cell, H2O2 probably reacts with Fe^2+ (and possibly Cu^2+) ions to form the hydroxyl radical, which may be the origin of many of its toxic effects. It is, therefore, biologically advantageous for cells to control the amount of hydrogen peroxide that is allowed to accumulate.
The ligand acids and their Cu(II) carboxylates were further subjected to H2O2 scavenging ability test potential by following the procedure as per cited literature. A 2 mM solution of H2O2 was made in 50 mM phosphate buffer having a pH 7.4. In the next step, 0.1 mL of the screened compounds was added to the 0.3 mL (50 mM) of phosphate buffer, then 0.6 mL of H2O2 was added and the solution was vortexed. After following the incubation period of 10 min, the absorption was 230 nm in comparison to the blank.

[3] = molecular target: acetylcholinesterase (AChE) (Electrophorus electricus, UniProt O42275); assay: biochemical; type: biochemical; conditions: for inhibition at 62.5 µg/mL / inhibition at 125 µg/mL / inhibition at 250 µg/mL / inhibition at 500 µg/mL / inhibition at 1000 µg/mL: read-out: Inhibition of Acetylcholinesterase (%AChE Activity)
Description: The synthesized compounds were evaluated for acetylcholinesterase (ACh) and butyrylcholinesterase (BCh) enzyme inhibitory activities.
(§1) The enzymes acetylcholinesterase (AChE) and butyrylcholinesterase (BChE) play an important role in the transfer of signals and physiological function. They assist acetylcholine to hydrolyze and produce choline and acetyl group in synaptic region. So, they are considered as targets in the management of Alzheimer’s disease. Herein, the compounds under study were evaluated for their potential to inhibit acetylthiocholine iodide (AChI) and butyrylthiocholine iodide (BChI) enzymes.
(§2) The well-known Ellman’s assay was implemented to evaluate the inhibitory potential using acetylthiocholine iodide (AChI) and butyrylthiocholine iodide (BChI) as substrates, respectively. The basic principle of the assay is the hydrolysis of acetylthiocholine iodide and butyrylthiocholine iodide by their corresponding enzymes, resulting in the formation of 5-thio-2-nitrobenzoate anion.
(§3) To carry out the assay, 0.1 M buffer solution with pH 8 was prepared as per the cited literature where the pH was adjusted using KOH (potassium hydroxide). Using the freshly prepared buffer and following the dilution, final concentrations of 0.03 U/mL for AChE (518 U/mg solid) and 0.01 U/mL for BChE (7–16 U/mg) were obtained. […] After that, the final solution of each of the AChE and BChE was prepared in distilled water in the presence of […] DTNB and were stored at 8 °C. The experiment was performed by taking 205 µL of inhibitor (tested compound) along with 5 µL of prepared solutions of enzymes, followed by the addition of 5 μL DTNB reagent. They were then incubated for about 15 min in a water bath at a temperature of 30 °C. Later on, 5 µL substrate solution was added to them which were subjected to absorption check at 412 nm. […] The temperature of the spectrophotometer was adjusted at 30 °C and then, following the reaction time of 4 min, the absorbance values were noted after regular intervals. The experiment was repeated, and change in absorption with time was used to calculate the percentage activity of enzyme and enzyme inhibitor [59]. The p values, or calculated probability levels, are categorized as: 5% (p < 0.05), 1% (p < 0.01) and 0.1% (p < 0.001). p < 0.05 means statistically significant and p < 0.001 means highly statistically significant.

[4] = molecular target: butyrylcholinesterase (BChE) (Equus caballus, UniProt P81908); assay: biochemical; conditions: for inhibition at 62.5 µg/mL / inhibition at 125 µg/mL / inhibition at 250 µg/mL / inhibition at 500 µg/mL / inhibition at 1000 µg/mL: read-out: inhibition of butyrylcholinesterase (% BChE activity)
Description: as §1, §2, §3

DPPH scavenging assay [5] = conditions: Comp. Conc. 62.5 µg/mL; mean ± S.E.M, n = 3

Chain of butyrylcholinesterase (BChE) (P81908 whole entry): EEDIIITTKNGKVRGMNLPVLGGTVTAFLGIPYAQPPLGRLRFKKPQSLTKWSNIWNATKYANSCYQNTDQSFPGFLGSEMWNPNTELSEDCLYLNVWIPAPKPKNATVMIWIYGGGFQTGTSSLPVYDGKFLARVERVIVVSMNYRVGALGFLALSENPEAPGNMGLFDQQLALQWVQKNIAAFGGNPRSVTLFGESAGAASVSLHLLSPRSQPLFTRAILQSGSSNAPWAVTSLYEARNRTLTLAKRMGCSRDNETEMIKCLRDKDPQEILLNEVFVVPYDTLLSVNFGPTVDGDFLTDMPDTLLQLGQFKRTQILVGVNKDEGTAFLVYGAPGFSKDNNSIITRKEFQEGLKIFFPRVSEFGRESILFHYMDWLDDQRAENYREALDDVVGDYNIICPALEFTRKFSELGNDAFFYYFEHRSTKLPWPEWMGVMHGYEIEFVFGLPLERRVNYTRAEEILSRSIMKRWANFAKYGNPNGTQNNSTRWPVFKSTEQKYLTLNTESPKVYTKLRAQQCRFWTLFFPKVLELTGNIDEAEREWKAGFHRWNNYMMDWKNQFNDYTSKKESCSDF
Chain of acetylcholinesterase (AChE) (O42275 24-633): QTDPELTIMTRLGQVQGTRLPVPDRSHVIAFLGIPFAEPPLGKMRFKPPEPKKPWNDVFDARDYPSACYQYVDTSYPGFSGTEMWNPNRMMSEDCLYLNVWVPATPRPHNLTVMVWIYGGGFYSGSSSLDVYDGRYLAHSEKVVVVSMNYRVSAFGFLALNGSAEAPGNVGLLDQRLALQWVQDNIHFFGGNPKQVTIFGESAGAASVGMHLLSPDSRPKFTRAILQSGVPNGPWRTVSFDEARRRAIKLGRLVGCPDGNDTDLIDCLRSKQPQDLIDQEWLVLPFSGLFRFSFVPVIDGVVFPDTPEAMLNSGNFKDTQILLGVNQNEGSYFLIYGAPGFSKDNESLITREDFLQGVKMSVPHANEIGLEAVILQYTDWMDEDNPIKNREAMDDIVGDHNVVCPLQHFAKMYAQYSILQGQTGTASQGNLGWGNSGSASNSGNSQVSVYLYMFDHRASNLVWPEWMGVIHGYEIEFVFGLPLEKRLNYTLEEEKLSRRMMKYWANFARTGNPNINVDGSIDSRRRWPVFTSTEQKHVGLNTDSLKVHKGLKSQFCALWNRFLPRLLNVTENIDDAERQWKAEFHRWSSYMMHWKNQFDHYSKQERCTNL

Compound | IC50, DPPH Free Radical Scavenging Ability (DPPH scavenging assay [1]) | DPPH Free Radical Scavenging Ability (DPPH scavenging assay [1]; Comp. Conc. 125 µg/mL) | DPPH Free Radical Scavenging Ability (DPPH scavenging assay [1]; Comp. Conc. 250 µg/mL) | DPPH Free Radical Scavenging Ability (DPPH scavenging assay [1]; Comp. Conc. 500 µg/mL) | DPPH Free Radical Scavenging Ability (DPPH scavenging assay [1]; Comp. Conc. 1000 µg/mL) | H2O2 free radical scavenging ability ([2]; Comp. Conc. 62.5 µg/mL) | H2O2 free radical scavenging ability ([2]; Comp. Conc. 125 µg/mL) | H2O2 free radical scavenging ability ([2]; Comp. Conc. 250 µg/mL) | H2O2 free radical scavenging ability ([2]; Comp. Conc. 500 µg/mL) | H2O2 free radical scavenging ability ([2]; Comp. Conc. 1000 µg/mL) | IC50, Inhibition of Acetylcholinesterase [3] | Inhibition of Acetylcholinesterase (%AChE Activity) ([3]; Comp. Conc. 62.5 µg/mL, n = 3) | Inhibition of Acetylcholinesterase (%AChE Activity) ([3]; Comp. Conc. 125 µg/mL, n = 3) | Inhibition of Acetylcholinesterase (%AChE Activity) ([3]; Comp. Conc. 250 µg/mL, n = 3) | Inhibition of Acetylcholinesterase (%AChE Activity) ([3]; Comp. Conc. 500 µg/mL, n = 3) | Inhibition of Acetylcholinesterase (%AChE Activity) ([3]; Comp. Conc. 1000 µg/mL, n = 3) | IC50, inhibition of butyrylcholinesterase [4] | inhibition of butyrylcholinesterase (% BChE activity) ([4]; Comp. Conc. 62.5 µg/mL, n = 3) | inhibition of butyrylcholinesterase (% BChE activity) ([4]; Comp. Conc. 125 µg/mL, n = 3) | inhibition of butyrylcholinesterase (% BChE activity) ([4]; Comp. Conc. 250 µg/mL, n = 3) | also measured
N#Cc1cccnc1.N#Cc1cccnc1.O=C([O-])Cc1ccccc1Cl.O=C([O-])Cc1ccccc1Cl.O=C([O-])Cc1ccccc1Cl.O=C([O-])Cc1ccccc1Cl.[Cu+2].[Cu+2] [Complex 1, Cu2(2-ClC6H4COO)4(3-CNPy)2] | 17.69 µg/mL | 61.40 ± 0.51 % | 67.44 ± 0.55 % | 73.47 ± 0.52 % | 78.39 ± 0.49 % | 53.50 ± 0.73 % | 62.42 ± 0.57 % | 70.32 ± 0.52 % | 74.27 ± 0.57 % | 80.30 ± 0.64 % | 39 µg/mL | 55.67 ± 0.61 % | 62.69 ± 0.77 % | 67.83 ± 0.56 % | 72.60 ± 0.80 % | 77.61 ± 0.77 % | 12 µg/mL | 64.53 ± 0.71 % | 68.51 ± 0.77 % | 71.75 ± 0.58 % | inhibition of butyrylcholinesterase (% BChE activity) ([4]; Comp. Conc. 500 µg/mL, n = 3): 76.45 ± 0.49 %; inhibition of butyrylcholinesterase (% BChE activity) ([4]; Comp. Conc. 1000 µg/mL, n = 3): 81.79 ± 0.62 %; DPPH Free Radical Scavenging Ability (DPPH scavenging assay [5]): 55.57 ± 0.84 %
N#Cc1ccncc1.N#Cc1ccncc1.O=C([O-])Cc1ccccc1Cl.O=C([O-])Cc1ccccc1Cl.O=C([O-])Cc1ccccc1Cl.O=C([O-])Cc1ccccc1Cl.[Cu+2].[Cu+2] [Complex 2, Cu2(2-ClC6H4COO)4(4-CNPy)2] | 3.22 µg/mL | 81.20 ± 0.65 ^⸙ % | 86.98 ± 0.85 % | 91.17 ± 0.53 % | 95.20 ± 0.15 % | 74.17 ± 0.72 % | 79.60 ± 0.90 ^⸸ % | 85.50 ± 0.40 % | 89.37 ± 1.65 % | 93.55 ± 0.40 % | 2 µg/mL | 71.73 ± 0.66 % | 73.70 ± 0.35 ^⸙ % | 78.07 ± 0.62 ^⸸ % | 83.01 ± 0.42 ^⸸ % | 87.50 ± 2.26 ^⸙ % | 04 µg/mL | 66.29 ± 0.43 % | 67.23 ± 0.44 % | 72.83 ± 1.07 % | IC50, H2O2 free radical scavenging ability [2]: 4.50 µg/mL; inhibition of butyrylcholinesterase (% BChE activity) ([4]; Comp. Conc. 500 µg/mL, n = 3): 76.87 ± 0.39 %; inhibition of butyrylcholinesterase (% BChE activity) ([4]; Comp. Conc. 1000 µg/mL, n = 3): 81.44 ± 0.09 %; DPPH Free Radical Scavenging Ability (DPPH scavenging assay [5]): 77.80 ± 0.37 ^⸙ %
O=C([O-])Cc1ccccc1Cl.O=C([O-])Cc1ccccc1Cl.O=C([O-])Cc1ccccc1Cl.O=C([O-])Cc1ccccc1Cl.Oc1ccncc1.Oc1ccncc1.[Cu+2].[Cu+2] [Complex 3, Cun(2-ClC6H4COO)4(4-OHPy)2] | 21.72 µg/mL | 62.50 ± 0.44 % | 66.33 ± 0.33 % | 74.66 ± 1.20 % | 79.00 ± 0.16 % | 61.30 ± 0.52 % | 66.37 ± 0.58 % | 72.29 ± 0.43 % | 78.58 ± 0.56 % | 84.39 ± 0.60 % | 17 µg/mL | 62.98 ± 0.72 % | 67.90 ± 0.96 % | 72.91 ± 0.88 % | 77.08 ± 0.47 % | 81.03 ± 0.35 % | 25 µg/mL | 60.2 ± 0.98 % | 63.3 ± 1.10 % | 68.2 ± 0.88 % | IC50, H2O2 free radical scavenging ability [2]: 11.47 µg/mL; inhibition of butyrylcholinesterase (% BChE activity) ([4]; Comp. Conc. 500 µg/mL, n = 3): 73.2 ± 0.98 %; inhibition of butyrylcholinesterase (% BChE activity) ([4]; Comp. Conc. 1000 µg/mL, n = 3): 76.8 ± 1.20 %; DPPH Free Radical Scavenging Ability (DPPH scavenging assay [5]): 53.00 ± 0.57 %
O=C(O)Cc1ccccc1Cl [L^1, 2-chlorophenyl acetic acid] |  |  |  |  |  |  |  |  |  |  |  |  |  |  |  |  |  |  |  |  | inhibition at 62.5 µg/mL ([3]; Comp. Conc. 62.5 µg/mL, n = 3): 50.35 ± 0.11%; inhibition at 125 µg/mL ([3]; Comp. Conc. 125 µg/mL, n = 3): 54.02 ± 0.24%; inhibition at 250 µg/mL ([3]; Comp. Conc. 250 µg/mL, n = 3): 57.34 ± 0.35%; inhibition at 500 µg/mL ([3]; Comp. Conc. 500 µg/mL, n = 3): 62.29 ± 0.32%; inhibition at 1000 µg/mL ([3]; Comp. Conc. 1000 µg/mL, n = 3): 65.39 ± 0.4%; inhibition at 62.5 µg/mL ([4]; Comp. Conc. 62.5 µg/mL, n = 3): 58.15 ± 0.22%; inhibition at 125 µg/mL ([4]; Comp. Conc. 125 µg/mL, n = 3): 63.4 ± 0.71%; inhibition at 250 µg/mL ([4]; Comp. Conc. 250 µg/mL, n = 3): 68.39 ± 0.35%; inhibition at 500 µg/mL ([4]; Comp. Conc. 500 µg/mL, n = 3): 73.42 ± 0.12%; inhibition at 1000 µg/mL ([4]; Comp. Conc. 1000 µg/mL, n = 3): 77.73 ± 0.03%; IC50 ([4]; read-out: IC50, inhibition of butyrylcholinesterase (converted)): 258 µM
O=C(O)Cc1cccc(Cl)c1 [L^2, 3-chlorophenyl acetic acid] |  |  |  |  |  |  |  |  |  |  |  |  |  |  |  |  |  |  |  |  | IC50 [3]: 234 µM; inhibition at 62.5 µg/mL [3]: 50.35 ± 0.11%; inhibition at 125 µg/mL [3]: 54.02 ± 0.24%; inhibition at 250 µg/mL [3]: 57.34 ± 0.35%; inhibition at 500 µg/mL [3]: 62.29 ± 0.32%; inhibition at 1000 µg/mL [3]: 65.39 ± 0.4%; IC50 [4]: 234 µM; inhibition at 62.5 µg/mL [4]: 58.15 ± 0.22%; inhibition at 125 µg/mL [4]: 63.4 ± 0.71%; inhibition at 250 µg/mL [4]: 68.39 ± 0.35%; inhibition at 500 µg/mL [4]: 73.42 ± 0.12%; inhibition at 1000 µg/mL [4]: 77.73 ± 0.03%
